Laboratory results reported in ChEMBL document CHEMBL1141310, “Screening of Indonesian medicinal plant extracts for antibabesial activity and isolation of new quassinoids from Brucea javanica” (J Nat Prod, 2007).
In brackets after ≈: the same amount, converted by molar mass.

Tested on: Babesia gibsoni
Test: Antibabesial activity against Babesia gibsoni
Type: functional, organism-based

Structure (SMILES)	IC50 [µg/mL]
COC(=O)[C@]12OC[C@]34[C@H]([C@@H](O)[C@@H]1O)[C@@]1(C)CC(=O)C(O)=C(C)[C@@H]1C[C@H]3OC(=O)[C@H](OC(=O)/C=C(\C)C(C)(C)OC(C)=O)[C@@H]24 [BRUCEANTINOL]	0.012 (≈ 0.0198 µM)
CC1=CC(=O)[C@@H](O)[C@]2(C)[C@H]3[C@@H](O)[C@H](O)[C@]4(C)OC[C@@]35[C@@H](C[C@@H]12)OC(=O)[C@H](O)[C@]54O [BRUCEINE D]	0.835 (≈ 2.03 µM)
CC(=O)NCC(=O)O.N=C(N)c1ccc(/N=N/Nc2ccc(C(=N)N)cc2)cc1 [DIMINAZEN ACETURATE]	0.103
CC1=CC(=O)[C@@H](O)[C@]2(C)[C@H]3[C@@H](O)[C@H](O)[C@]4(CO)OC[C@@]35[C@@H](C[C@@H]12)OC(=O)[C@H](O)[C@]54O [YADANZIOLIDE A]	0.216 (≈ 0.507 µM)

Other lines, results leading:

IC50 [µg/mL]	Structure (SMILES)
0.978 (≈ 1.65 µM)	CC(=O)OC(C)(C)/C(C)=C/C(=O)O[C@H]1C(=O)O[C@@H]2C[C@H]3C(C)=C(O)C(=O)C[C@]3(C)[C@H]3[C@@H](O)[C@H](O)[C@@]4(C(=O)O)OC[C@]32[C@@H]14 [BRUCEANTINOL B]
0.004 (≈ 0.00765 µM)	COC(=O)[C@@]12OC[C@]34[C@H]([C@@H](O)[C@@H]1O)[C@@]1(C)CC(=O)C(O)=C(C)[C@@H]1C[C@H]3OC(=O)[C@H](OC(=O)CC(C)C)[C@@H]24 [BRUCEINE A]
0.893 (≈ 1.86 µM)	COC(=O)[C@@]12OC[C@]34[C@H]([C@@H](O)[C@@H]1O)[C@@]1(C)CC(=O)C(O)=C(C)[C@@H]1C[C@H]3OC(=O)[C@H](OC(C)=O)[C@@H]24 [BRUCEINE B]
0.107 (≈ 0.19 µM)	COC(=O)[C@]12OC[C@]34[C@H]([C@@H](O)[C@@H]1O)[C@@]1(C)CC(=O)C(O)=C(C)[C@@H]1C[C@H]3OC(=O)[C@H](OC(=O)/C=C(\C)C(C)(C)O)[C@@H]24 [BRUCEINE C]
0.742 (≈ 1.46 µM)	CC1=C(O)C(=O)C[C@]2(C)[C@H]3[C@@H](O)[C@H](O)[C@@]4(C(=O)O)OC[C@@]35[C@@H](C[C@@H]12)OC(=O)[C@H](OC(=O)CC(C)C)[C@@H]45 [BRUCEINE J]
